Two compounds from patent US20240327364A1, “THERAPEUTIC TARGETING OF GPR68 TO INDUCE FERROPTOSIS” (University Of Maryland, Baltimore, priority 2023, published 2024) can be followed below.

The target in one experiment is T1, ADRA2A (Homo sapiens, UniProt P08913).
T1 construct: host or cells: Chem-1 cells with promiscuous Gα15
Briefly: GPCR Profiler. Format: cell-based.

Another experiment addresses T2, CCK1 (Homo sapiens, UniProt P32238).
T2 construct: host or cells: Chem-1 cells with promiscuous Gα15
In words: GPCR Profiler. The format is cell-based.

Another experiment has as its target T3, MERTK (Homo sapiens, UniProt Q12866).
T3 construct: purchased DiscoveRx (Fremont, CA)
In words: KinomeScan. The format is binding. The note with it: read-out: % Control.

A further experiment addresses T4, BRSK2 (Homo sapiens, UniProt Q8IWQ3).
T4 construct: purchased DiscoveRx (KinomeScan service)
Briefly: KinomeScan. The note with it: read-out: % Control. Format: binding.

A further experiment has as its target T5, VPAC1 (Homo sapiens, UniProt P32241).
T5 construct: host or cells: Chem-1 cells expressing Galpha15
In words: GPCR Profiler. The format is cell-based.

For a further experiment, the target named is T6, CRF1 (Homo sapiens, UniProt P34998).
T6 construct: host or cells: Chem-1 cells with Gα15
T6 sequence (P34998 24-415): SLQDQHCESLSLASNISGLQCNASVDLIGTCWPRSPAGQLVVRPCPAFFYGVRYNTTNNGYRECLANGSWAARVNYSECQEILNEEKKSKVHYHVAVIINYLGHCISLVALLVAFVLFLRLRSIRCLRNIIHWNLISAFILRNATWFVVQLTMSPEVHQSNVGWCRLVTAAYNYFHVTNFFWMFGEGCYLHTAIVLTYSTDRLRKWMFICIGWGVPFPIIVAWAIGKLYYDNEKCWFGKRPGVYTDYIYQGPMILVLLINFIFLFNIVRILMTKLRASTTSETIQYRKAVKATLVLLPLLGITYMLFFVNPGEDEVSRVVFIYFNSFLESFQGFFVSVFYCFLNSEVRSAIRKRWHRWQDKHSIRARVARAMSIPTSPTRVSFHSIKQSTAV
In words: GPCR Profiler. The format is cell-based.

The target of the next experiment is T7, PDPK1 (Homo sapiens, UniProt O15530).
T7 construct: purchased DiscoveRx (Fremont, CA)
Briefly: KinomeScan. The following applies: read-out: % Control. Format: binding.

For another experiment, the target named is T8, HIPK4 (Homo sapiens, UniProt Q8NE63).
T8 construct: purchased DiscoveRx (Fremont, CA)
In words: KinomeScan. Format: binding. The note with it: read-out: % Control.

For a further experiment, the target named is T9, ERN1 (Homo sapiens, UniProt O75460).
T9 construct: purchased DiscoveRx (Fremont, CA)
T9 sequence (O75460 19-977): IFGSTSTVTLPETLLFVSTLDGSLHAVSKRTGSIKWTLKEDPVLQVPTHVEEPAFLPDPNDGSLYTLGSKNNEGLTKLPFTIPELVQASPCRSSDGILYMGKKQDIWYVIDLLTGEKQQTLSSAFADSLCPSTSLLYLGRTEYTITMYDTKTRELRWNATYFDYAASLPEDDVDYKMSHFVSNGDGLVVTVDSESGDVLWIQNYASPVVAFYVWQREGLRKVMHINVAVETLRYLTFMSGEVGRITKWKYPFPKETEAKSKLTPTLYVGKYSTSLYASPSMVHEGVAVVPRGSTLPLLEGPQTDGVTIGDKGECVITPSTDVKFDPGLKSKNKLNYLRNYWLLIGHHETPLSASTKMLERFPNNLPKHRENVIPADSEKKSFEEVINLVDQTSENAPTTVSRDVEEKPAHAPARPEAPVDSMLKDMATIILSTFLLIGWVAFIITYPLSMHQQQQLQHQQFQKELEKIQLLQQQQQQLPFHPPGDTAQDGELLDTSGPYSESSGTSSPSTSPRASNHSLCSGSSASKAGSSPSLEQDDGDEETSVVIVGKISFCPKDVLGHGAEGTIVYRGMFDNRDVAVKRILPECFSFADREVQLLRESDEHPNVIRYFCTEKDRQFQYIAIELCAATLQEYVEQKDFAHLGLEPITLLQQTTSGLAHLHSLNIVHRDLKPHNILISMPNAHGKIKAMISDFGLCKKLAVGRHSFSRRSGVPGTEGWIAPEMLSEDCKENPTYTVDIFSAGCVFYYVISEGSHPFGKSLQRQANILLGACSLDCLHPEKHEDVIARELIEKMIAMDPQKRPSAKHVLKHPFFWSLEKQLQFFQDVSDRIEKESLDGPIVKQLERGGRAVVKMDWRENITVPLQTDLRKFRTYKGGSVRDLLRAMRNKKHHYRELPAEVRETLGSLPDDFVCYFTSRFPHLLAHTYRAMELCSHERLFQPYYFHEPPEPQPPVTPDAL
Briefly: KinomeScan. The format is binding. The note with it: read-out: % Control.

The target of the next experiment is CHEK2 (Homo sapiens, UniProt O96017). In words: KinomeScan. Format: binding. The note with it: read-out: % Control.
CHEK2, sequence (O96017 whole entry): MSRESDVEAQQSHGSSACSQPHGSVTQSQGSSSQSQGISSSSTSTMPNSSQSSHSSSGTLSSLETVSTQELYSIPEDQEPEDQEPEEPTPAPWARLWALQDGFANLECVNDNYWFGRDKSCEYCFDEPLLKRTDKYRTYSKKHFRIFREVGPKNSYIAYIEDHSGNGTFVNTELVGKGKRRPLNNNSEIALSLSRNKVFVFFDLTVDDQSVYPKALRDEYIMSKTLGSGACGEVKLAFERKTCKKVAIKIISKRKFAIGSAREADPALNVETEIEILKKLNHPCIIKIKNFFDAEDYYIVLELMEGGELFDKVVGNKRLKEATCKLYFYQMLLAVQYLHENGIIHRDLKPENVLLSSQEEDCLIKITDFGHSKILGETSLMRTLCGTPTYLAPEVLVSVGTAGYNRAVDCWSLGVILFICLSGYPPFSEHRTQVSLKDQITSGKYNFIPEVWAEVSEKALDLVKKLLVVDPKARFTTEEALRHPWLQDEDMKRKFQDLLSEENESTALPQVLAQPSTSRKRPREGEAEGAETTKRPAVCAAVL
A further experiment deals with T10, FES (Homo sapiens, UniProt P07332).
T10 construct: purchased DiscoveRx (Fremont, CA)
Briefly: KinomeScan. The note with it: read-out: % Control. Format: binding.

The target of experiment [1] is T11, ABL1(M351T)-phosphorylated (Homo sapiens, UniProt P00519, M351T).
T11 construct: purchased DiscoveRx
In words: KinomeScan. Format: binding. The note with it: read-out: % Control.

The next experiment addresses T12, 5-HT6 (Homo sapiens, UniProt P50406).
T12 construct: host or cells: Chem-1 cells with promiscuous Gα15
In words: GPCR Profiler. Format: cell-based.

Another experiment has as its target T13, ERK4 (Homo sapiens, UniProt P31152).
T13 construct: purchased DiscoveRx (Fremont, CA)
In words: KinomeScan. The format is binding. The following applies: read-out: % Control.

Another experiment deals with T14, NEK5 (Homo sapiens, UniProt Q6P3R8).
T14 construct: purchased DiscoveRx
In words: KinomeScan. Format: binding. The following applies: read-out: % Control.

The target of a further experiment is T15, AKT2 (Homo sapiens, UniProt P31751).
T15 construct: purchased DiscoveRx (Fremont, CA)
T15 sequence (P31751 whole entry): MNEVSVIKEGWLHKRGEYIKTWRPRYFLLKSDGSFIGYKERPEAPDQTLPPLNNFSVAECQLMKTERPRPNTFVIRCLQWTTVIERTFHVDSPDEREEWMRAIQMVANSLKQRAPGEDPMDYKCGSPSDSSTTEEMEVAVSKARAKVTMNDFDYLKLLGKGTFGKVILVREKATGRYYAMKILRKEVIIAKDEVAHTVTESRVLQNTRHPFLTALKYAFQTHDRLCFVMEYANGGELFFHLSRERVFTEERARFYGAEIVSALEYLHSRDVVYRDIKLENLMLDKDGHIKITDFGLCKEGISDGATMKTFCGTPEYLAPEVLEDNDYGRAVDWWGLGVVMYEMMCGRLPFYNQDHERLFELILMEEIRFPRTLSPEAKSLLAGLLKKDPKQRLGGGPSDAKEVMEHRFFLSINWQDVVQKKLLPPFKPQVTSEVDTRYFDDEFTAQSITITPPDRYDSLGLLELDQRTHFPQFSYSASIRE
In words: KinomeScan. Format: binding. The note with it: read-out: % Control.

In the next experiment the test system is WM115. In words: Agarose drop assay. The format is cell-based, human. The note with it: OGM2 5 μM, 5 days. How it is done: WM115 cells were trypsinized and resuspended at 100,000 cells per mL in low melt agarose. A 10 μl drop of the cell mixture was added to 12-well plate. After solidifying Normal culture media was added with either DMSO 0.5% or OGM2 5 μM. The area around the agarose drop was visualized manually with light microscopy. The cells were incubated for 5 days and visualized. Cells outside of the agarose drop were visualized and quantitated.
FIG. 12A is a schematic of the agarose drop assay. WM115 cells were mixed into a low melt agarose solution and single 10 μL drops were seeded onto cell culture plates. After solidifying, media containing OGM2 (5 μM) or CTL (DMSO […]) was added and wells were observed 5 days later. Immediately after media addition no cells are on the plate outside of the agarose gel in CTL or OGM2. Five days after seeding cells are observed outside of the gel (Black arrows) in CTL but not in OGM2. […] Quantification on the number of cells that escaped from an average of 5 gel drop replicates. FIG. 12B through FIG. 12D show the cells after media addition. No cells are on the plate outside of the agarose gel in CTL or OGM2. Five days after seeding, cells are observed outside of the gel (arrows) in CTL but not in OGM2.

In a further experiment the test system is K-562. In words: Cell Titer-Glo viability, Chronic myelogenous leukemia. Format: cell-based. As to the method: OGM2 kills wide variety of cancer cell types. Cell sensitivity can be classified in to Very Sensitive (LC50<2 μM), Sensitive (LC50=2 to 10 μM), Mildly Sensitive (LC50>10 μM), and Refractory (no killing at 10 μM). The listed established cell were incubated with OGM2 at 2 μM or 10 μM for 72 hours under standard cell culture conditions, and relative cell number was assessed using Cell Titer-Glo Luminescent Cell Viability Assay (Promega™) following the manufacturer's instructions. Luminescence was determined using a Cytation 5 reader and Gen5 software package (BioTek™).
Cancer cells, which are very sensitive to killing by OGM2 (LCs <2 μM), with reported mRNA expression of GPR68 and the related proton sensing receptor GPR4. LC50's (concentrations causing 50% lethality) were determined using CellTiter-Glo (Promega™, G7570). Cells were plated in 12-well plates (CELLTREAT Scientific Products, 229112) in 1 ml of DMEM with high glucose, GlutaMAX, HEPES, or RPMI 1640 with Penicillin-Streptomycin (ThermoFisher™, 10564029, 11875119 and 15140122) and 10% FBS. Cells were incubated overnight at 37° C. in 5% CO2. Then 1 mL of fresh media was added with DMSO, OGM, or positive control (Erastin; APExBIO Technology, LLC, B1524) and cells incubated for 3 days. On the third day, all media was removed, cells were rinsed with 1×PBS, PBS was removed, and 200 μL of 1× Passive Lysis Buffer (Promega™, E1941) was added to each well. […]. Subsequently, 20 μL of lysate was added to 100 μL CellTiter-Glo™ reagent on a LUMITRAC 200 plate (Greiner™ bio-one, 82050-726). Plates were briefly spun down and read on a GloMax-Multi Detection System (Promega™).
The cells listed in the tables above were incubated with OGM2 at 2 μM or 10 μM for 72 hours under standard cell culture conditions, and relative cell number was assessed using Cell Titer-Glo Luminescent Cell Viability Assay (Promega™) following the manufacturer's instructions. Luminescence was determined using a Cytation 5 reader and Gen5 software package (BioTek™). RNA expression of GPR68 and GPR4 in the corresponding cancer cell lines are listed, according to the publicly available The Human Protein Atlas version 22.0 and Ensembl version 103.38 (see proteinatlas.org). The consensus normalized expression value (“nTPM”=normalize transcript per million) was calculated as the maximum nTPM value for each gene in the two data sources.

T5 sequence (P32241 31-457): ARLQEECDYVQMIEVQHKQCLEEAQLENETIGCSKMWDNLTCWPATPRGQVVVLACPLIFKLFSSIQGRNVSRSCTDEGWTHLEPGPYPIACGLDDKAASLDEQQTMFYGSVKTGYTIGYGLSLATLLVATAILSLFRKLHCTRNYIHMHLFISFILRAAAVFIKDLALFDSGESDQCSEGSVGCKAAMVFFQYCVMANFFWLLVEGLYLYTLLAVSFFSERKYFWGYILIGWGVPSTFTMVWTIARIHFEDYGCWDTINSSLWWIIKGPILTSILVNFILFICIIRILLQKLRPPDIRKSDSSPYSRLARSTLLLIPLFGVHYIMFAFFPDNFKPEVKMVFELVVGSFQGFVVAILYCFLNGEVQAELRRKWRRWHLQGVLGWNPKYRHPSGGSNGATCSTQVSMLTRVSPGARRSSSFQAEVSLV
T1 sequence (P08913 whole entry, species assumed): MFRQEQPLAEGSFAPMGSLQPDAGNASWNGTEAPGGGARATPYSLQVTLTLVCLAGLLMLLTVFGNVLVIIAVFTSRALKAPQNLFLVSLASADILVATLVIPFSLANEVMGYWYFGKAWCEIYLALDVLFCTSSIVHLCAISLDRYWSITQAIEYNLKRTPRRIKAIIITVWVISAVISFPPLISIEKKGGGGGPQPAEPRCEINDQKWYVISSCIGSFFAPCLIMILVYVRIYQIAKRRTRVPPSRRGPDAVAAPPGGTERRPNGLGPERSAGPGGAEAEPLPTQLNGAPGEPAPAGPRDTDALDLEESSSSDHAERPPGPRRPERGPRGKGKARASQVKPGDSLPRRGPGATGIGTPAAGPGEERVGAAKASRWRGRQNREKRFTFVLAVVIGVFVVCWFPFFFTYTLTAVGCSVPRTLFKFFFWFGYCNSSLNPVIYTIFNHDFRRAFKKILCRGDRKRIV
T12 sequence (P50406 whole entry, species assumed): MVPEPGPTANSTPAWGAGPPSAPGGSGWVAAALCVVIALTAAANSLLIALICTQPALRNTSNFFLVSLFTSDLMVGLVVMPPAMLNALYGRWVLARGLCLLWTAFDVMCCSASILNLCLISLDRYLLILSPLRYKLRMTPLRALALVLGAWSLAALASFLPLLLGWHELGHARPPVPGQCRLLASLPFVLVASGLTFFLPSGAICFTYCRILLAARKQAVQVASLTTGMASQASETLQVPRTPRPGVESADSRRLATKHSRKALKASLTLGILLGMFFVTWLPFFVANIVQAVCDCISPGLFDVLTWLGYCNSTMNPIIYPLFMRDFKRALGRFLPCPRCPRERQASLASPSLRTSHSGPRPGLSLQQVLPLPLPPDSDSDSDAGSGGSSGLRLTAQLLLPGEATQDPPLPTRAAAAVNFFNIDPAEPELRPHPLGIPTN
T2 sequence (P32238 whole entry): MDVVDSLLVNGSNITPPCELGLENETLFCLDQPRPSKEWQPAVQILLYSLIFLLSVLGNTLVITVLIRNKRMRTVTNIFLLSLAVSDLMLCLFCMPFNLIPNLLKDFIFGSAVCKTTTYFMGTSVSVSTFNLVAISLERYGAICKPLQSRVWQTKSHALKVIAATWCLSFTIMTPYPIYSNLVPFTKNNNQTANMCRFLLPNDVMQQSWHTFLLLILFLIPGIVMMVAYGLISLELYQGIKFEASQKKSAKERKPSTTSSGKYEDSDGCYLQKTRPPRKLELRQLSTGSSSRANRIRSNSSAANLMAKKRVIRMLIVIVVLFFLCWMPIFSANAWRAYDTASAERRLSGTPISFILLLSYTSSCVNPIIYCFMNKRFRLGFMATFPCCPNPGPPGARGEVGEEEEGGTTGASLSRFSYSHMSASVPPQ
T13 sequence (P31152 whole entry): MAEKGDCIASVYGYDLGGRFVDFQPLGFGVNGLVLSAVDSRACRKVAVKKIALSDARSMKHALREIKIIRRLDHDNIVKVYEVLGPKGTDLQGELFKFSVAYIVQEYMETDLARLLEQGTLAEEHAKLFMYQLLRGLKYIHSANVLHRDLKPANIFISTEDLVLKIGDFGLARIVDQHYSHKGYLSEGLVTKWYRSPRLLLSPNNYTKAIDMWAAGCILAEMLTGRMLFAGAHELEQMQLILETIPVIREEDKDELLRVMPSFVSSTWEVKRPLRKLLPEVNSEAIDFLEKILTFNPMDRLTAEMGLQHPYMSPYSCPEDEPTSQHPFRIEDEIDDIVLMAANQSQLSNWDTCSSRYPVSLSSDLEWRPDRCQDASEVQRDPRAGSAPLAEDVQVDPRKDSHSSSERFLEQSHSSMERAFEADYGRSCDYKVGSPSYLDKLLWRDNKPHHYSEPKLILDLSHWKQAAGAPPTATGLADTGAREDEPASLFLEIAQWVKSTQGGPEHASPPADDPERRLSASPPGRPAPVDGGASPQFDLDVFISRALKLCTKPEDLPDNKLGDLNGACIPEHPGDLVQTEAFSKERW

Turning to `CCc1ccc2c(c1)C1(NN=C(c3cccc4ccccc34)S1)C(=O)N2` (centres unmarked) [OGM1, 5-ethyl-5′-naphthalen-1-ylspiro[1H-indole-3,2′-3H-1,3,4-thiadiazole]-2-one], the Antagonism was −5.1 at ADRA2A (10 uM); 1.9 on CCK1 (10 uM); 16.6 at VPAC1 (10 uM); 4.6 at CRF1 (10 uM); −4.4 on 5-HT6 (10 uM). The Agonism is given as 0.1 at ADRA2A (12.5 uM); 0.8 at CCK1 (12.5 uM); 0 on VPAC1 (12.5 uM); −0.1 at CRF1 (12.5 uM); −0.7 on 5-HT6 (12.5 uM). The remaining binding at 10 µM on MERTK is 80%; on BRSK2, 100%; at PDPK1 it was 100%; at HIPK4 it was 100%; at ERN1, 72%; at CHEK2, 82%. Further, the remaining binding at 10 µM at FES was determined as 100%; in [1] it was 84%; on ERK4, 93%; on NEK5, 95%; on AKT2 it was 93%.
Consider `CCc1ccc2c(c1)C1(NN=C(c3ccccc3)S1)C(=O)N2` (centres unmarked) [OGM2], for which the “migration out of agarose drop” value in the experiment on WM115 is “migrated significantly less than the vehicle treated cells”. For the same compound, the Class entry with K-562 is reported as “Sensitive (Sensitive (LC50=2 to 10 μM))”. In the experiment on K-562 (72 hours), the “% Survival 2 μM OGM” value is listed as 56.7% and the “% Survival 10 μM OGM” value came to 37.0%. For the same compound, the CC50 in the experiment on K-562 (Homo sapiens, K562, 72 hours, read-out: LC50 (the source's name)) fell in the range of 2 to 10 µM.
